For ten compounds, Ki and Ratio Ki results are on record in ChEMBL document CHEMBL1821607, “N-Arylalkyl-2-azaadamantanes as cage-expanded polycarbocyclic sigma (σ) receptor ligands” (Bioorg Med Chem Lett, 2011).

In test [1] the target is Sigma non-opioid intracellular receptor 1 (Cavia porcellus, UniProt Q60492). Put plainly: Displacement of [3H](+)-pentazocine from sigma 1 receptor in guinea pig brain homogenates after 90 mins by scintillation counting. The class given is tissue-based.
A short description of test [2]: Selectivity ratio of Ki for sigma 2 receptor in rat liver to Ki for sigma 1 receptor in guinea pig brain.
Test [3] can be described thus: Displacement of [3H]DTG from sigma 2 receptor in rat liver homogenates in presence of sigma-1 receptor blocker (+)-pentazocine after 120 mins by liquid scintillation counting. It is filed as tissue-based. In general terms: Displacement assays read how much labelled ligand stays bound in the presence of the test substance.
Test [4] is described as follows: Selectivity ratio of Ki for sigma 1 receptor in guinea pig brain to Ki for sigma 2 receptor in rat liver.

What is called Ki is the dissociation constant of the complex between target and ligand, obtained from inhibition or displacement.

Chain of Sigma non-opioid intracellular receptor 1 (Q60492 whole entry): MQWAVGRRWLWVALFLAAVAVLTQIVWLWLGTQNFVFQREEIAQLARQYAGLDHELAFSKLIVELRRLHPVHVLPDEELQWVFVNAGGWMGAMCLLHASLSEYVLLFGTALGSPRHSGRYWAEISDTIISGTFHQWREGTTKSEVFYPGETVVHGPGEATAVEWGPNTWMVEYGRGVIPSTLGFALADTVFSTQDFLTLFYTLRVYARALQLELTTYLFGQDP

Regarding `Fc1cccc(CCN2C3CC4CC(C3)CC2C4)c1`, the Ki in test [1] came to 0.0083 µM; in test [3], 0.04 µM. Moreover, in test [2], the Ratio Ki is 4.8.

`OC12CC3CC(CC(C3)N1Cc1ccc(F)cc1)C2` (racemic): the Ki in test [1] amounted to 0.65 µM; in test [3], 0.826 µM. Besides, the Ratio Ki in test [2] worked out at 1.3.

In the case of `COc1cccc(CN2C3CC4CC(C3)CC2(O)C4)c1` (racemic), the Ratio Ki in test [4] came to 5.5. Moreover, the Ki came out at 1.95 µM in test [1] and 0.353 µM in test [3].

With `Fc1ccc(CCN2C3CC4CC(C3)CC2C4)cc1`, the inhibition constant (Ki) in test [1] came to 0.0128 µM; in test [3] it was 0.034 µM. Further, the Ratio Ki in test [2] was 2.7.

On to `Fc1ccc(CN2C3CC4CC(C3)CC2C4)cc1`, for which the inhibition constant (Ki) was determined as 0.012 µM in test [1] and 0.09 µM in test [3]. For the same compound, the Ratio Ki in test [2] was 7.5.

For the compound `COc1ccc(CN2C3CC4CC(C3)CC2C4)cc1`, the Ki turned out to be 0.0124 µM in test [1] and 0.054 µM in test [3]. Also, the Ratio Ki in test [2] was found to be 4.4.

On to `OC12CC3CC(CC(C3)N1CCc1ccc(F)cc1)C2` (racemic), for which the Ratio Ki in test [4] is 1.2. Further, the values for the Ki in test [1] and in test [3] were 0.246 µM and 0.201 µM, respectively.

Take `COc1ccc(CN2C3CC4CC(C3)CC2(O)C4)cc1` (racemic): the Ratio Ki in test [4] worked out at 2.9. For the same compound, the Ki came out at 1.24 µM in test [1] and 0.426 µM in test [3].

Take `OC12CC3CC(CC(C3)N1CCc1cccc(F)c1)C2` (racemic): the Ki in test [1] worked out at 0.234 µM; in test [3], 0.25 µM. Besides, the Ratio Ki in test [2] was determined as 1.1.

`COc1cccc(CN2C3CC4CC(C3)CC2C4)c1`: the Ratio Ki in test [4] is 3.7. The Ki in test [1] was found to be 0.239 µM; in test [3], 0.064 µM.
